Where a SMILES comes first, the peptide text is derived from it. [ ]: non-standard residue; d: D form. The star is where a group is joined. Pheψ(CH2S)LeuNH2 = CC(C)C[C@H](SC[C@H](Cc1ccccc1)N*)C(N)=O; pGlu = O=C1CC[C@@H](C(=O)O)N1
What was measured:
Bombesin Receptor = biological target: T1, Bombesin Receptor (Mus musculus, UniProt P21729); test: Phosphatidylinositol turnover in chopped mouse pancreas; format: cell-based; set-up: key to PI Turnover Agonist: (+) represents agonist activity; (-) indicates no agonist activity
T1 construct: Pancreata from mice were chopped at 350 μm with a tissue chopper and pooled; from tissue; host or cells: chopped mouse pancreas
T1 sequence (P21729 whole entry): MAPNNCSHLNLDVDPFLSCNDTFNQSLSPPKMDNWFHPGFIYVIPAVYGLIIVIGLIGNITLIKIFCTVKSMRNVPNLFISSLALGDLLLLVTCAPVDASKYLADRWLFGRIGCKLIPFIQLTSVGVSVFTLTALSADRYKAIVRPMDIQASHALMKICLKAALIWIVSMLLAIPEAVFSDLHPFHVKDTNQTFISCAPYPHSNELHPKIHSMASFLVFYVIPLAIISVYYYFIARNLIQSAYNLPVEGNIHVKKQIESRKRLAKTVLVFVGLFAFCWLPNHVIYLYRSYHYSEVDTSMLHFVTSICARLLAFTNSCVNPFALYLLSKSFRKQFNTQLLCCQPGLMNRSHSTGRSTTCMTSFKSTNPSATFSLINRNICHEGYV
Procedure: Pancreata from mice were chopped at 350 μm with a tissue chopper and pooled. The chopped tissue was washed twice with oxygenated Krebs-Hepes, then incubated for 30 minutes in 37° C. oxygenated Krebs-Hepes buffer with fresh buffer after 15 minutes. The tissue was then incubated in this buffer containing 200 μCi of [^3 H] inositol at 37° C. for 1 hour. The tissue was then washed twice and incubated for another 30 minutes in oxygenated Krebs-Hepes (containing 10 mM Li^+) at 37° C. with a fresh buffer change after 15 minutes. Portions of the tissue mass (approximately 10 mg per assay tube) were then placed in Li^+ buffer with protease inhibitors, (40 μg/ml bacitracin, 4 μg/ml leupeptin, 4 μg/ml chymostatin, 8 μg/ml thiorphan), 0.1% BSA, and 0.1-10 μM peptide in a final volume of 250 μl. After 60 minutes at room temperature, the phosphatidylinositol turnover was terminated by the addition of 940 μl chloroform:methanol (1:2), followed by 310 μl chloroform, followed by 310 μl water. Each tube was then vortexed for 5 seconds and then centrifuged at 2500 x g for 10 minutes to separate the phases. 50 μl of the bottom phase (chloroform) was withdrawn from each tube and placed in a counting vial, dried, and counted in scintillation fluid. 900 μl of the top (aqueous) phase were then mixed with 2.1 ml water and loaded onto a 0.5 ml Biorad AG-1X8 (formate) ion exchange column. The material on the columns was washed in order with: 1) 10 ml of water 2) 5 ml of 5 mM disodium tetraborate/60 mM sodium formate 3) 10 ml of 1 M ammonium formate in 0.1 M formic acid. The final (third) wash was collected and one ml was mixed with 14 ml of Bio-Safe scintillant and counted. The ratio of these counts (total inositol phosphates) to the corresponding organic phase counts (inositol incorporated into the tissue) was then calculated for each sample. The ratios in the presence of test compound and/or standards were then compared to the ratios for control tubes (i.e., no stimulating agonist). The abilities of test compounds to stimulate phosphatidyl-inositol turnover were determined with the aid of a computer program. […] The ordinate (y-axis) indicates the observed PI turnover as a percentage of control. Values are mean±standard error of triplicate determinations.

[1] = tested on: cell surface receptors that bind bombesin; details: background section; read-out: KD of high-affinity cell surface receptors that bind bombesin; cited from earlier work
bombesin/GRP receptor = biological target: T2, bombesin/GRP receptor (Mus musculus, UniProt P21729); test: Competition for 125I-GRP binding to murine pancreatic membranes; details: Kd (nM), competitive binding, mouse pancreas; averages of multiple experiments
T2 construct: The pancreata from one or more mice were pooled and homogenized; from tissue; host or cells: mouse pancreas membranes
T2 sequence (P21729 whole entry): as above
Procedure: The pancreata from one or more mice were pooled and homogenized in 50 mM HEPES (pH 7.4) containing 120 mM NaCl, 5 mM KCl, 1 mM EDTA and protease inhibitors (1 μg/ml aprotinin, leupeptin, pepstatin; 4 μg/ml bacitracin, antipain, bestatin; 100 μM PMSF) at 4° C. and centrifuged at 37,500 X g for 15 minutes. The pellet was resuspended in 50 mM HEPES (pH 7.4) containing 10 mM EDTA, 300 mM KCl, and protease inhibitors, and then incubated for 30 minutes at 4° C. The suspension was centrifuged as above and the pellet was washed two times in 50 mM HEPES (pH 7.4) containing 8 μg/ml thiorphan and protease inhibitors, and again centrifuged. The tissue was then resuspended in incubation buffer (1 ml per 4 mg pancreas) and incubated for 15 minutes at room temperature, then 250 μl were added to each assay tube to commence the assay. […] The assay was allowed to proceed to equilibrium for 90 minutes at room temperature. After this time, the contents of each tube was rapidly filtered over Whatman GF/B filters presoaked in 0.1% polyethyleneimine and the filters were rapidly washed three times with ice-cold 50 mM HEPES (pH 7.4). Filter-bound radioactivity was quantitated in a gamma counter. […] Affinity and maximal binding were calculated with LIGAND (Biosoft, Cambridge, UK) (FIGS. 1 and FIG. 2)
The abscissa (x-axis) logarithmically indicates the concentration of agonists being tested.

SMILES | PI Turnover Agonist (Bombesin Receptor) | Kd [1] [nM] | Kd (bombesin/GRP receptor) [nM] | PI Turnover % Inhibition (Bombesin Receptor; antagonist activity, referenced to the stimulation produced by 100 nM GRP) [%]
CSCC[C@H](NC(=O)[C@H](CC(C)C)NC(=O)[C@H](Cc1cnc[nH]1)NC(=O)CNC(=O)[C@@H](NC(=O)[C@H](C)NC(=O)[C@H](Cc1c[nH]c2ccccc12)NC(=O)[C@H](CCC(N)=O)NC(=O)[C@H](CC(N)=O)NC(=O)CNC(=O)[C@H](CC(C)C)NC(=O)[C@H](CCCN=C(N)N)NC(=O)[C@H](CCC(N)=O)NC(=O)[C@@H]1CCC(=O)N1)C(C)C)C(N)=O [Bombesin, pGlu--Gln--Arg--Leu--Gly--Asn--Gln--Trp--Ala--Val--Gly--His--Phe--Met--NH2] | + | 1 | – | –
CC(C)C[C@H](NC(=O)[C@H](CCCNC(=N)N)NC(=O)[C@H](CCC(N)=O)NC(=O)[C@@H]1CCC(=O)N1)C(=O)NCC(=O)N[C@@H](CC(N)=O)C(=O)N[C@@H](CCC(N)=O)C(=O)N[C@@H](Cc1c[nH]c2ccccc12)C(=O)N[C@@H](C)C(=O)N[C@H](C(=O)NCC(=O)N[C@@H](Cc1c[nH]cn1)C(=O)N[C@H](CS[C@@H](CC(C)C)C(N)=O)Cc1ccccc1)C(C)C [[Phe^13 .psi.[CH2 S]Leu^14 bombesin, pGlu--Gln--Arg--Leu--Gly--Asn--Gln--Trp--Ala--Val--Gly--His--Phe.psi.[CH2 S]Leu--NH2] ([pGlu]QRLGNQWAVGH-{Pheψ(CH2S)LeuNH2}) | – | – | 2.8 | 54

From patent publication US5428019A, “Bombesin analogs” (Merrell Dow Pharmaceuticals Inc., priority 1994, dated 1995)
